Reference: the kinase profiling compilation of Christmann-Franck et al. (2016)

Experiments:
Assay in all cases: KINOMEscan competition binding
Conditions in all cases: compound 1.0 µM
[1] = biological target: YES1 (human) (UniProt P07947)
[2] = biological target: MAST1 (human) (UniProt Q9Y2H9)
[3] = biological target: MARK2 (human) (UniProt Q7KZI7)
[4] = biological target: PRKCQ (human) (UniProt Q04759)
[5] = biological target: MYLK (human) (UniProt Q15746)
[6] = biological target: NIM1 (human) (UniProt Q8IY84)
[7] = biological target: WNK3 (human) (UniProt Q9BYP7)
[8] = biological target: MST1R (human) (UniProt Q04912)
[9] = biological target: MAP2K4 (human) (UniProt P45985)
[10] = test system: KIT (human), P10721 [V559D/T670I]
[11] = biological target: CDC2L2 (human) (UniProt Q9UQ88)
[12] = biological target: PLK2 (human) (UniProt Q9NYY3)
[13] = biological target: JAK1 JH1 catalytic (human) (UniProt P23458)
[14] = biological target: TYRO3 (human) (UniProt Q06418)
[15] = biological target: IRAK3 (human) (UniProt Q9Y616)
[16] = biological target: FES (human) (UniProt P07332)
[17] = biological target: RPS6KA5 KD2 (human) (UniProt O75582)
[18] = biological target: MAP3K11 (human) (UniProt Q16584)
[19] = biological target: STK24 (human) (UniProt Q9Y6E0)
[20] = test system: KIT (human), P10721 [L576P]
[21] = biological target: TLK1 (human) (UniProt Q9UKI8)
[22] = biological target: CSNK1G1 (human) (UniProt Q9HCP0)
[23] = biological target: RPS6KA2 KD1 (human) (UniProt Q15349)
[24] = biological target: AURKC (human) (UniProt Q9UQB9)
[25] = test system: PIK3CA (human), P42336 [E545A]
[26] = biological target: CLK3 (human) (UniProt P49761)
[27] = test system: EGFR (human), P00533 [G719C]
[28] = biological target: HIPK2 (human) (UniProt Q9H2X6)
[29] = biological target: CIT (human) (UniProt O14578)
[30] = biological target: CHEK2 (human) (UniProt O96017)
[31] = biological target: STK33 (human) (UniProt Q9BYT3)
[32] = biological target: EPHA3 (human) (UniProt P29320)
[33] = biological target: CDK9 (human) (UniProt P50750)
[34] = biological target: NEK11 (human) (UniProt Q8NG66)
[35] = biological target: STK32A (human) (UniProt Q8WU08)
[36] = biological target: STK11 (human) (UniProt Q15831)
[37] = biological target: MAP3K2 (human) (UniProt Q9Y2U5)
[38] = biological target: PIM2 (human) (UniProt Q9P1W9)
[39] = biological target: ULK3 (human) (UniProt Q6PHR2)

Sequence of MYLK (human) (Q15746 whole entry, looked up): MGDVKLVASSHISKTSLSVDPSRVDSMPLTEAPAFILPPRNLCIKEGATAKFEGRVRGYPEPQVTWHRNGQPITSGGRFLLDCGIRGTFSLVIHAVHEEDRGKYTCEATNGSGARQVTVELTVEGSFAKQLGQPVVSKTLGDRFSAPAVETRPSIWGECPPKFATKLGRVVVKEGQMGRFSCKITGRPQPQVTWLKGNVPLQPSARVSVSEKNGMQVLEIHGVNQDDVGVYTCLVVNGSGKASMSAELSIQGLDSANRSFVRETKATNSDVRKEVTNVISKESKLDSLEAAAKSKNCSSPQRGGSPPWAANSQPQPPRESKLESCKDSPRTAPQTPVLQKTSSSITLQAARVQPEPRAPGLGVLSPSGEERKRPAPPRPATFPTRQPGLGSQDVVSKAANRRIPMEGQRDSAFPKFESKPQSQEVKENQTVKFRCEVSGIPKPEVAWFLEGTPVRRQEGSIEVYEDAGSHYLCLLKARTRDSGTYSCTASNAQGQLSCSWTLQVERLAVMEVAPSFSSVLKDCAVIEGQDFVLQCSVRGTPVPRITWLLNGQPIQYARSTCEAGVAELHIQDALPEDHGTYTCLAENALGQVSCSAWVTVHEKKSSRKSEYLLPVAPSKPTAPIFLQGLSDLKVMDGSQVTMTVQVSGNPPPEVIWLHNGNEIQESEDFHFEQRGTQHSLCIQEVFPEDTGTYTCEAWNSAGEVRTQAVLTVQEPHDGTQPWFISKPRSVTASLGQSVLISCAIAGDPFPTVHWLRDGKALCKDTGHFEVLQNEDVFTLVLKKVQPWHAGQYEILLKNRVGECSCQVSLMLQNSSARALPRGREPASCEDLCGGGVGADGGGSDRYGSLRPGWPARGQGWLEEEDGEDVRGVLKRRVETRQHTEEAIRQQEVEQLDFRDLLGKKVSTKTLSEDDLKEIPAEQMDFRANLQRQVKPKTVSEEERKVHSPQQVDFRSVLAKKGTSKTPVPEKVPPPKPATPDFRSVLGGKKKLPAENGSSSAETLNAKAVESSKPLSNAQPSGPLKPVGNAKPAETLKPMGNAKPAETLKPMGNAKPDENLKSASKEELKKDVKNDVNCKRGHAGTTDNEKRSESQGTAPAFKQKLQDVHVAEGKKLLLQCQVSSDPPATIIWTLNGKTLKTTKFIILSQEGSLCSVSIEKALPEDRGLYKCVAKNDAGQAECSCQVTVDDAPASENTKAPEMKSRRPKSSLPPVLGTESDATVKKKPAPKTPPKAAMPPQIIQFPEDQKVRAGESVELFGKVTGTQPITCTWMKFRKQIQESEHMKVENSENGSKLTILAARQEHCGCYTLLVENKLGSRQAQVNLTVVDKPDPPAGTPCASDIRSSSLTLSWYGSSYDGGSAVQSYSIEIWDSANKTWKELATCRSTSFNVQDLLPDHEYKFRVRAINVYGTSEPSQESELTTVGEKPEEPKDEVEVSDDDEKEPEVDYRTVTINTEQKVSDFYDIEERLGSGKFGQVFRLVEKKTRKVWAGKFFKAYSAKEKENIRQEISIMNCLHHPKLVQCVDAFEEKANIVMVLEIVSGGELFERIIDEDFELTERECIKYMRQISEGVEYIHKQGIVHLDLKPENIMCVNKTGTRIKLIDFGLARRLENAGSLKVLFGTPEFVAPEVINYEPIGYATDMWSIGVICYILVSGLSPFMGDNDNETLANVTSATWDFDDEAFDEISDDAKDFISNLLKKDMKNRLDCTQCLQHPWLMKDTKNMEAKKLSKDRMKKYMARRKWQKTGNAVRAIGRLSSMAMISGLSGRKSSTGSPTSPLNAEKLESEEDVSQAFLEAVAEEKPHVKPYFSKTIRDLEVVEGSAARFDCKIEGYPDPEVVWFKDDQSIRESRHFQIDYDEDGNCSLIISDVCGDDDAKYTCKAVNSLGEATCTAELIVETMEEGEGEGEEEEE
Sequence of STK11 (human) (Q15831 whole entry, looked up): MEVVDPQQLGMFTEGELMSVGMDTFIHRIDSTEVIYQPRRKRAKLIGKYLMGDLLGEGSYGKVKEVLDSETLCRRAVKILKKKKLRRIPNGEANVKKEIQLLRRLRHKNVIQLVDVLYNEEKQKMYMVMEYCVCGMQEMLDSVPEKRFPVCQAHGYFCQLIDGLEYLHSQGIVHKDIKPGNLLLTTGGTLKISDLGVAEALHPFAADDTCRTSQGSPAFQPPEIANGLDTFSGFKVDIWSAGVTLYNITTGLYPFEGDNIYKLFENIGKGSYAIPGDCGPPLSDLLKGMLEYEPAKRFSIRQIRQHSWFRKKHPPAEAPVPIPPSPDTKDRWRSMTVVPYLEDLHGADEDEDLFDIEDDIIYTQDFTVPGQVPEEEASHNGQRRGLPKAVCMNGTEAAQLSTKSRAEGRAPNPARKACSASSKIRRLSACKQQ
Sequence of KIT (human), P10721 [L576P] (P10721 whole entry L576P, looked up): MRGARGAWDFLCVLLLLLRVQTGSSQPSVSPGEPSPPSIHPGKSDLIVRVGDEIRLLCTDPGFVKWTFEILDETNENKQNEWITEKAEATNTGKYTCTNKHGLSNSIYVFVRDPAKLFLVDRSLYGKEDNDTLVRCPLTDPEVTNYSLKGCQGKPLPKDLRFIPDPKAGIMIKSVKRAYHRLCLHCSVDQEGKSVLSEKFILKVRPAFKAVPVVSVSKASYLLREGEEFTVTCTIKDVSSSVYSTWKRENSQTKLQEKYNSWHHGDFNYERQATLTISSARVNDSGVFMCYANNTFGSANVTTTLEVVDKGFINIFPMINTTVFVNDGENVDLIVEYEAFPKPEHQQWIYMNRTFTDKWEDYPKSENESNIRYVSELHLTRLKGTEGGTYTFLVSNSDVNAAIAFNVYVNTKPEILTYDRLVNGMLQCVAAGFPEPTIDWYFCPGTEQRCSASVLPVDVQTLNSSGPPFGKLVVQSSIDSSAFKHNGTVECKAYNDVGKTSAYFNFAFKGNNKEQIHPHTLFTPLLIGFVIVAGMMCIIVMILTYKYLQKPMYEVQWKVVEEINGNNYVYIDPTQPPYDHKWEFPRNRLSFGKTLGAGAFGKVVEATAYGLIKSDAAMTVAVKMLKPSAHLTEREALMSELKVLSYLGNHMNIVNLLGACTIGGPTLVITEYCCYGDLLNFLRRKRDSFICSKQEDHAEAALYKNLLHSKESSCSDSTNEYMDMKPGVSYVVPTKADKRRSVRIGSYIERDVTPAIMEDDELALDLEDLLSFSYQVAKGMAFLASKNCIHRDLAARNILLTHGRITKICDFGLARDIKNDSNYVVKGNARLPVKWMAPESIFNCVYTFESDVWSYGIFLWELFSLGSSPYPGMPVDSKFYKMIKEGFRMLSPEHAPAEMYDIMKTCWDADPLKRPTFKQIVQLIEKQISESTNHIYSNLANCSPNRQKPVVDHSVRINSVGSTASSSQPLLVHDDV
Sequence of STK33 (human) (Q9BYT3 whole entry, looked up): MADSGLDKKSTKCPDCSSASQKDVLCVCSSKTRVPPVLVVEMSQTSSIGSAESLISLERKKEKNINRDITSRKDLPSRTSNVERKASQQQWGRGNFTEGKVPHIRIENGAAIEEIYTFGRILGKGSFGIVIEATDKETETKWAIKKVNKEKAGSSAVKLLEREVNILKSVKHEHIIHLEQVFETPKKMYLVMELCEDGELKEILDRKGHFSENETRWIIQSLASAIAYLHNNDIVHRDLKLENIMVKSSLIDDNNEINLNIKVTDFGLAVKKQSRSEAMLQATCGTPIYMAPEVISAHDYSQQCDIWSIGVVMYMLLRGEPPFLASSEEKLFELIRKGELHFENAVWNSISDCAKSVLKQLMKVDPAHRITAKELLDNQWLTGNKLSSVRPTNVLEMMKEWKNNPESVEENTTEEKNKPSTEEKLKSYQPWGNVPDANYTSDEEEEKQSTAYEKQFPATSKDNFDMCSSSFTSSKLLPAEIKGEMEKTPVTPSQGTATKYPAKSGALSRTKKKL
Sequence of STK24 (human) (Q9Y6E0 whole entry, looked up): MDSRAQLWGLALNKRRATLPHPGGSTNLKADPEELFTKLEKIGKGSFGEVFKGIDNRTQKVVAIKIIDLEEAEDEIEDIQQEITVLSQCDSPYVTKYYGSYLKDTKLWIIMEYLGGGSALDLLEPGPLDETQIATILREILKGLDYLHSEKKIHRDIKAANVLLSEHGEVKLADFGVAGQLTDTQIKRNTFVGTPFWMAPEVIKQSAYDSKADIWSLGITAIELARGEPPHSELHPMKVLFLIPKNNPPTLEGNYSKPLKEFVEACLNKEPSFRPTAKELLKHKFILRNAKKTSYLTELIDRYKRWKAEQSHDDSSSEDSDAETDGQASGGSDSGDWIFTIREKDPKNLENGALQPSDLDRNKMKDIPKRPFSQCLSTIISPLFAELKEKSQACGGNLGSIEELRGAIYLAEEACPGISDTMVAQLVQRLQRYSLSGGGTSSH
Sequence of RPS6KA2 KD1 (human) (Q15349 whole entry, looked up): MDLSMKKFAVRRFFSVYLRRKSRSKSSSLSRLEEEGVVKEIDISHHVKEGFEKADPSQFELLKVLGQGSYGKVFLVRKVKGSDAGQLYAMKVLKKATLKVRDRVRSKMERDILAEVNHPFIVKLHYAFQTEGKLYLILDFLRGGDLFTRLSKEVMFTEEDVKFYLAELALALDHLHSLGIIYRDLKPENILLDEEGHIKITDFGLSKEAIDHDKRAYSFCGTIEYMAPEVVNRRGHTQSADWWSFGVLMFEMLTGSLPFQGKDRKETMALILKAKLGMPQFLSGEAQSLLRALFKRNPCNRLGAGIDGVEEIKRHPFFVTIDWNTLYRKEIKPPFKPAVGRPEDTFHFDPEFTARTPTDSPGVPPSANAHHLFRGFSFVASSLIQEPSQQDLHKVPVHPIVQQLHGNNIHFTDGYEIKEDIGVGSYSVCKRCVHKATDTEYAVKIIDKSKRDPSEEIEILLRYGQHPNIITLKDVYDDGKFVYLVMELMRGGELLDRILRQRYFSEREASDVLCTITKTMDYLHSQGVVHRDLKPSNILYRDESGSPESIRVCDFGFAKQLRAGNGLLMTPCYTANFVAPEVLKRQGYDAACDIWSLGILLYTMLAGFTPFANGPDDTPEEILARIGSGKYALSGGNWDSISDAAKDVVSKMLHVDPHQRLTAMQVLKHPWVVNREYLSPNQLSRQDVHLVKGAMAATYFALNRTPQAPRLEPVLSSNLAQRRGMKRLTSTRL
Sequence of KIT (human), P10721 [V559D/T670I] (P10721 whole entry V559D/T670I, looked up): as the sequence (P10721 whole entry L576P, looked up) above, with V559D, P576L, T670I counted along it

`CNc1nc(Nc2ccc(C(=O)N3CCOCC3)cc2OC)ncc1Cl` was tested, and the kinase still bound, per cent of control [1] was 100%, the kinase still bound, per cent of control [2] was 93% and the kinase still bound, per cent of control [3] was 100%. The kinase still bound, per cent of control [4] was 100%, the residual activity [5] was 75% and the kinase still bound, per cent of control [6] was 100%. The kinase still bound, per cent of control [7] was 93%, the kinase still bound, per cent of control [8] was 100% and the kinase still bound, per cent of control [9] was 78%. It also gave a kinase still bound, per cent of control [10] of 100%, a residual activity [11] of 100% and a kinase still bound, per cent of control [12] of 100%. For the same compound, the kinase still bound, per cent of control [13] was 82%, the kinase still bound, per cent of control [14] was 100% and the kinase still bound, per cent of control [15] was 88%. The kinase still bound, per cent of control [16] was 100%, the kinase still bound, per cent of control [17] was 54% and the kinase still bound, per cent of control [18] was 100%. For the same compound, the kinase still bound, per cent of control [19] was 79%, the kinase still bound, per cent of control [20] was 9.4% and the kinase still bound, per cent of control [21] was 93%. It also gave a kinase still bound, per cent of control [22] of 55%, a kinase still bound, per cent of control [23] of 100% and a kinase still bound, per cent of control [24] of 88%. The kinase still bound, per cent of control [25] was 68%, the kinase still bound, per cent of control [26] was 100% and the kinase still bound, per cent of control [27] was 100%. The kinase still bound, per cent of control [28] was 100%, the kinase still bound, per cent of control [29] was 100% and the kinase still bound, per cent of control [30] was 26%. The kinase still bound, per cent of control [31] was 38%, the kinase still bound, per cent of control [32] was 100% and the residual activity [33] was 100%. It also gave a kinase still bound, per cent of control [34] of 100%, a kinase still bound, per cent of control [35] of 100% and a kinase still bound, per cent of control [36] of 90%. It also gave a kinase still bound, per cent of control [37] of 100%, a kinase still bound, per cent of control [38] of 100% and a kinase still bound, per cent of control [39] of 83%.
